In the NIST ThermoML archive (doi:10.1021/je200811n):

Conditions: Hot wire method

C=C(F)C(F)(F)F [2,3,3,3-tetrafluoro-1-propene]
Conditions | thermal conductivity [W/m/K]
332.05 K, 300 kPa, Gas | 0.01662
332.05 K, 1511 kPa, Gas | 0.01807
332.06 K, 821 kPa, Gas | 0.01681
332.12 K, 1388 kPa, Gas | 0.01774
332.13 K, 627 kPa, Gas | 0.01673
332.19 K, 1235 kPa, Gas | 0.01737
332.21 K, 465 kPa, Gas | 0.01667
332.27 K, 1074 kPa, Gas | 0.01714
332.3 K, 974 kPa, Gas | 0.01699
332.31 K, 299 kPa, Gas | 0.01673
332.33 K, 1511 kPa, Gas | 0.01806
332.36 K, 820 kPa, Gas | 0.01686
332.38 K, 202 kPa, Gas | 0.0168
332.41 K, 1386 kPa, Gas | 0.01772
332.46 K, 626 kPa, Gas | 0.01677
332.48 K, 1233 kPa, Gas | 0.01739
332.55 K, 102 kPa, Gas | 0.01703
332.56 K, 463 kPa, Gas | 0.01674
332.58 K, 1073 kPa, Gas | 0.01716
332.62 K, 973 kPa, Gas | 0.01704
332.62 K, 1511 kPa, Gas | 0.01806
332.67 K, 299 kPa, Gas | 0.01675
332.69 K, 819 kPa, Gas | 0.0169
332.71 K, 1385 kPa, Gas | 0.0177
332.75 K, 202 kPa, Gas | 0.01687
332.81 K, 626 kPa, Gas | 0.01677
332.81 K, 1233 kPa, Gas | 0.01741
332.91 K, 1072 kPa, Gas | 0.01718
332.91 K, 1511 kPa, Gas | 0.01803
332.92 K, 461 kPa, Gas | 0.01677
332.95 K, 101 kPa, Gas | 0.01705
332.96 K, 972 kPa, Gas | 0.01706
333.04 K, 299 kPa, Gas | 0.01681
333.04 K, 1384 kPa, Gas | 0.0177
333.05 K, 818 kPa, Gas | 0.01692
333.14 K, 1232 kPa, Gas | 0.01741
333.15 K, 202 kPa, Gas | 0.01686
333.18 K, 625 kPa, Gas | 0.01682
333.26 K, 1071 kPa, Gas | 0.0172
333.3 K, 460 kPa, Gas | 0.01681
333.31 K, 972 kPa, Gas | 0.01708
333.38 K, 101 kPa, Gas | 0.01705
333.41 K, 817 kPa, Gas | 0.01696
333.45 K, 300 kPa, Gas | 0.01686
333.56 K, 624 kPa, Gas | 0.01687
333.57 K, 202 kPa, Gas | 0.01692
333.69 K, 460 kPa, Gas | 0.01685
333.83 K, 102 kPa, Gas | 0.0171
333.87 K, 300 kPa, Gas | 0.01688
334.02 K, 202 kPa, Gas | 0.01695
334.31 K, 102 kPa, Gas | 0.01716
341.28 K, 102 kPa, Gas | 0.01759
341.35 K, 201 kPa, Gas | 0.01779
341.39 K, 303 kPa, Gas | 0.01795
341.45 K, 17165 kPa, Liquid | 0.0645
341.49 K, 102 kPa, Gas | 0.01745
341.52 K, 12122 kPa, Liquid | 0.06134
341.52 K, 21726 kPa, Liquid | 0.06742
341.55 K, 17165 kPa, Liquid | 0.06461
341.56 K, 200 kPa, Gas | 0.01761
341.6 K, 303 kPa, Gas | 0.01775
341.6 K, 8202 kPa, Liquid | 0.05839
341.61 K, 21724 kPa, Liquid | 0.06756
341.62 K, 12120 kPa, Liquid | 0.06114
341.69 K, 5189 kPa, Liquid | 0.05547
341.7 K, 8198 kPa, Liquid | 0.05823
341.73 K, 103 kPa, Gas | 0.01734
341.77 K, 2101 kPa, Liquid | 0.05131
341.79 K, 200 kPa, Gas | 0.0175
341.8 K, 5187 kPa, Liquid | 0.05524
341.8 K, 17162 kPa, Liquid | 0.0647
341.82 K, 302 kPa, Gas | 0.01766
341.85 K, 21720 kPa, Liquid | 0.06741
341.88 K, 12117 kPa, Liquid | 0.06141
341.89 K, 2100 kPa, Liquid | 0.05083
341.92 K, 17160 kPa, Liquid | 0.06488
341.96 K, 103 kPa, Gas | 0.01726
341.96 K, 21718 kPa, Liquid | 0.06759
341.98 K, 8198 kPa, Liquid | 0.05827
342.01 K, 12114 kPa, Liquid | 0.06141
342.02 K, 199 kPa, Gas | 0.01743
342.03 K, 1842 kPa, Gas | 0.01945
342.03 K, 1904 kPa, Gas | 0.01996
342.04 K, 1737 kPa, Gas | 0.0191
342.05 K, 302 kPa, Gas | 0.01758
342.07 K, 1574 kPa, Gas | 0.01854
342.08 K, 5185 kPa, Liquid | 0.0553
342.11 K, 8197 kPa, Liquid | 0.05815
342.16 K, 1405 kPa, Gas | 0.01818
342.17 K, 951 kPa, Gas | 0.01775
342.18 K, 17158 kPa, Liquid | 0.06504
342.19 K, 814 kPa, Gas | 0.0177
342.19 K, 2098 kPa, Liquid | 0.05099
342.21 K, 103 kPa, Gas | 0.01718
342.22 K, 5183 kPa, Liquid | 0.05512
342.22 K, 21716 kPa, Liquid | 0.0677
342.26 K, 605 kPa, Gas | 0.01764
342.27 K, 199 kPa, Gas | 0.01735
342.27 K, 1842 kPa, Gas | 0.01963
342.27 K, 1904 kPa, Gas | 0.01971
342.28 K, 12111 kPa, Liquid | 0.06144
342.29 K, 302 kPa, Gas | 0.0175
342.29 K, 1736 kPa, Gas | 0.01924
342.29 K, 1903 kPa, Gas | 0.01966
342.32 K, 459 kPa, Gas | 0.01763
342.32 K, 17157 kPa, Liquid | 0.06503
342.34 K, 1573 kPa, Gas | 0.01875
342.34 K, 2096 kPa, Liquid | 0.05065
342.36 K, 21715 kPa, Liquid | 0.06785
342.4 K, 8195 kPa, Liquid | 0.05822
342.43 K, 1404 kPa, Gas | 0.01834
342.44 K, 12112 kPa, Liquid | 0.06137
342.47 K, 949 kPa, Gas | 0.01781
342.47 K, 1242 kPa, Gas | 0.01809
342.5 K, 813 kPa, Gas | 0.01767
342.5 K, 1096 kPa, Gas | 0.01796
342.51 K, 1904 kPa, Gas | 0.01989
342.52 K, 1841 kPa, Gas | 0.01962
342.52 K, 1904 kPa, Gas | 0.01982
342.52 K, 5181 kPa, Liquid | 0.05511
342.54 K, 939 kPa, Gas | 0.01779
342.55 K, 1735 kPa, Gas | 0.01923
342.56 K, 303 kPa, Gas | 0.01766
342.56 K, 8193 kPa, Liquid | 0.05802
342.6 K, 17155 kPa, Liquid | 0.06501
342.61 K, 1572 kPa, Gas | 0.01878
342.63 K, 201 kPa, Gas | 0.01782
342.63 K, 21712 kPa, Liquid | 0.06777
342.66 K, 458 kPa, Gas | 0.01768
342.66 K, 2094 kPa, Liquid | 0.05079
342.69 K, 5181 kPa, Liquid | 0.05482
342.72 K, 1403 kPa, Gas | 0.01842
342.73 K, 12110 kPa, Liquid | 0.06135
342.75 K, 102 kPa, Gas | 0.01803
342.77 K, 1903 kPa, Gas | 0.01985
342.77 K, 17154 kPa, Liquid | 0.06488
342.78 K, 1241 kPa, Gas | 0.01818
342.78 K, 1841 kPa, Gas | 0.01962
342.79 K, 948 kPa, Gas | 0.01785
342.79 K, 1904 kPa, Gas | 0.01984
342.79 K, 21708 kPa, Liquid | 0.06775
342.82 K, 1095 kPa, Gas | 0.01798
342.83 K, 812 kPa, Gas | 0.01775
342.83 K, 1734 kPa, Gas | 0.01925
342.86 K, 939 kPa, Gas | 0.01784
342.86 K, 8191 kPa, Liquid | 0.05808
342.89 K, 1571 kPa, Gas | 0.01877
342.9 K, 12107 kPa, Liquid | 0.06122
342.91 K, 302 kPa, Gas | 0.01773
343.01 K, 201 kPa, Gas | 0.01784
343.01 K, 5178 kPa, Liquid | 0.05499
343.02 K, 458 kPa, Gas | 0.0177
343.03 K, 1402 kPa, Gas | 0.01843
343.03 K, 1903 kPa, Gas | 0.01984
343.05 K, 8190 kPa, Liquid | 0.05781
343.05 K, 17151 kPa, Liquid | 0.06493
343.06 K, 1840 kPa, Gas | 0.01962
343.06 K, 1904 kPa, Gas | 0.01984
343.06 K, 21708 kPa, Liquid | 0.06763
343.1 K, 1240 kPa, Gas | 0.01819
343.12 K, 946 kPa, Gas | 0.01784
343.12 K, 1733 kPa, Gas | 0.0192
343.14 K, 1094 kPa, Gas | 0.01802
343.15 K, 102 kPa, Gas | 0.01805
343.17 K, 2093 kPa, Liquid | 0.05051
343.19 K, 810 kPa, Gas | 0.0178
343.2 K, 938 kPa, Gas | 0.0179
343.2 K, 12105 kPa, Liquid | 0.06126
343.21 K, 1570 kPa, Gas | 0.01879
343.21 K, 5176 kPa, Liquid | 0.05461
343.25 K, 17149 kPa, Liquid | 0.06474
343.25 K, 21706 kPa, Liquid | 0.06757
343.29 K, 302 kPa, Gas | 0.01776
343.29 K, 606 kPa, Gas | 0.01775
343.35 K, 1401 kPa, Gas | 0.01847
343.36 K, 8188 kPa, Liquid | 0.05795
343.39 K, 2092 kPa, Liquid | 0.05007
343.4 K, 200 kPa, Gas | 0.01785
343.41 K, 459 kPa, Gas | 0.01776
343.41 K, 12104 kPa, Liquid | 0.06108
343.43 K, 1239 kPa, Gas | 0.01822
343.48 K, 945 kPa, Gas | 0.01791
343.49 K, 1093 kPa, Gas | 0.01807
343.53 K, 5176 kPa, Liquid | 0.05477
343.55 K, 809 kPa, Gas | 0.01783
343.55 K, 937 kPa, Gas | 0.01797
343.56 K, 102 kPa, Gas | 0.01807
343.58 K, 8186 kPa, Liquid | 0.0576
343.68 K, 606 kPa, Gas | 0.0178
343.69 K, 302 kPa, Gas | 0.01781
343.72 K, 2091 kPa, Liquid | 0.05023
343.77 K, 5174 kPa, Liquid | 0.05432
343.8 K, 200 kPa, Gas | 0.0179
343.8 K, 459 kPa, Gas | 0.0178
343.99 K, 2090 kPa, Liquid | 0.05015
344 K, 103 kPa, Gas | 0.01811
344.09 K, 302 kPa, Gas | 0.01783
344.23 K, 199 kPa, Gas | 0.01797
344.46 K, 103 kPa, Gas | 0.01816

Liquid
Conditions | thermal conductivity [W/m/K]
333.15 K | 0.05329
343.15 K | 0.05091
